Source: patent publication US10774064B2 (Cadent Therapeutics, Inc., priority 2016, dated 2020)

Biological target: T1, small-conductance Ca2+-activated K+ channels (SK channels, subtype 2) (Homo sapiens, UniProt Q9H2S1)
T1 construct: expressed in transfected cells; host or cells: HEK293
Assay: whole-cell patch-clamp of ionic current through SK2 channels in HEK293 cells (SC100)
Assay type: cell-based
Conditions: whole-cell patch-clamp, HEK293 cells expressing SK2 channels; concentration that increases the basal current by 100%
Method in brief: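 Whole-cell patch-clamp recording of current in HEK293 cells expressing SK2 channels. SC100 is the compound concentration that increases basal current by 100%.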

Row | Compound | SC100 (μM)
1 | Cc1csc(-c2nc(NC3CCC(F)(F)CC3)cc(C(C)C)n2)n1 [IN11177-064-P1, N-(4,4-difluorocyclohexyl)-6-isopropyl-2-(4-methylthiazol-2-yl)pyrimidin-4-amine] | ++ (++ means 200 nM-1000 nM)
2 | N#Cc1ccn(-c2nc(NC3CCC(F)(F)CC3)cc(N3CCOCC3)n2)n1 [IN11177-068-P1] | + (+ means >1 uM)
3 | Cc1csc(-c2nc(NC3CCC(F)(F)CC3)cc(OCC#N)n2)n1 [IN11196-007-P1, 2-((6-((4,4-difluorocyclohexyl)amino)-2-(4-methylthiazol-2-yl)pyrimidin-4-yl)oxy)acetonitrile] | ++ (++ means 200 nM-1000 nM)
4 | Cc1csc(-c2nc(NC3CCC(F)(F)CC3)cc(=O)n2CC#N)n1 [IN11196-007-P2, 2-(4-((4,4-difluorocyclohexyl)amino)-2-(4-methylthiazol-2-yl)-6-oxopyrimidin-1(6H)-yl)acetonitrile] | + (+ means >1 uM)
5 | COC(C)c1cc(NC2CCC(F)(F)CC2)nc(-n2ccc(C3CC3)n2)n1 (centres unmarked) [IN11196-026-P1, 2-(3-cyclopropyl-1H-pyrazol-1-yl)-N-(4,4-difluorocyclohexyl)-6-(1-methoxyethyl)pyrimidin-4-amine] | + (+ means >1 uM)
6 | [2H]C1([2H])OC([2H])([2H])C([2H])([2H])N(c2cc(NC3CCC(F)(F)CC3)nc(-n3ccc(C)n3)n2)C1([2H])[2H] [IN11196-039-P1] | ++ (++ means 200 nM-1000 nM)
7 | CC1=NN(c2nc(NC3CCC(F)(F)CC3)cc(N3CCOCC3)n2)CC1 [IN11196-041-P1, N-(4,4-difluorocyclohexyl)-2-(3-methyl-4,5-dihydro-1H-pyrazol-1-yl)-6-morpholinopyrimidin-4-amine] | + (+ means >1 uM)
8 | COc1c(NC2CCC(F)(F)CC2)nc(-c2nc(C)cs2)n(CC#N)c1=O [IN11196-065-P1] | + (+ means >1 uM)
9 | Cc1csc(-c2nc(NC3CCC(F)(F)CC3)cc(-c3ccccn3)n2)n1 [IN11196-080-P1] | + (+ means >1 uM)
10 | Cc1ccc(-c2nc(NC3CCC(F)(F)CC3)cc(N3CCOCC3)n2)[nH]1 [IN11196-081-P1, N-(4,4-difluorocyclohexyl)-2-(5-methyl-1H-pyrrol-2-yl)-6-morpholino pyrimidin-4-amine] | + (+ means >1 uM)
11 | Cc1cc(NC2CCC(F)(F)CC2)nc(-n2cc3c(n2)CCC3)n1 [IN11216-001-P1] | + (+ means >1 uM)
12 | CCOC(=O)c1cn(-c2nc(NC3CCC(F)(F)CC3)cc(N3CCOCC3)n2)nc1C [IN11216-043-P1] | + (+ means >1 uM)
13 | Cc1nn(-c2nc(NC3CCC(F)(F)CC3)cc(N3CCOCC3)n2)cc1F [IN11216-050-P1] | ++ (++ means 200 nM-1000 nM)
14 | Cc1cc(NC2CCC(F)(F)CC2)nc(-n2cc(-n3cc(F)c(C)n3)c(C)n2)n1 [IN11216-072-P1] | + (+ means >1 uM)
15 | COc1nn(-c2nc(NC3CCC(F)(F)CC3)cc(N3CCOCC3)n2)cc1F [IN11216-073-P1] | +++ (+++ means <200 nM)
16 | FC1(F)CCC(Nc2cc(N3CCCOCC3)nc(-n3ccc(C4CC4)n3)n2)CC1 [IN11217-003-P1, 2-(3-cyclopropyl-1H-pyrazol-1-yl)-N-(4,4-difluorocyclohexyl)-6-(1,4-oxazepan-4-yl)pyrimidin-4-amine] | ++ (++ means 200 nM-1000 nM)
17 | Cc1ccn(-c2cc(COc3cccnn3)cc(NC3CCC(F)(F)CC3)n2)n1 [IN11217-056-P1, N-(4,4-difluorocyclohexyl)-6-(3-methyl-1H-pyrazol-1-yl)-4-((pyridazin-3-yloxy)methyl)pyridin-2-amine] | ++ (++ means 200 nM-1000 nM)
18 | OC(c1cc(NC2CCC(F)(F)CC2)nc(-n2ccc(C3CC3)n2)n1)C(F)(F)F (centres unmarked) [IN11217-068-P1, 1-(2-(3-cyclopropyl-1H-pyrazol-1-yl)-6-((4,4-difluorocyclohexyl)amino)pyrimidin-4-yl)-2,2,2-trifluoroethan-1-ol] | + (+ means >1 uM)
19 | CCOCCc1cc(NC2CCC(F)(F)CC2)nc(-n2ccc(C3CC3)n2)n1 [IN11217-069-P1, 2-(3-cyclopropyl-1H-pyrazol-1-yl)-N-(4,4-difluorocyclohexyl)-6-(2-ethoxyethyl)pyrimidin-4-amine] | + (+ means >1 uM)
20 | COc1cc(C)n(-c2nc(NC3CCC(F)(F)CC3)cc(N3CCOCC3)n2)n1 [IN11217-088-P1] | + (+ means >1 uM)
21 | CC(=O)N1CCC(Oc2cc(NC3CCC(F)(F)CC3)nc(-n3ccc(C)n3)c2)CC1 [IN11218-025-P1, 1-(4-((2-((4,4-difluorocyclohexyl)amino)-6-(3-methyl-1H-pyrazol-1-yl)pyridin-4-yl)oxy)piperidin-1-yl)ethan-1-one] | ++ (++ means 200 nM-1000 nM)
22 | Cc1cc(NC2CCC(F)(F)CC2)nc(-n2ccc(C3(N)CC3)n2)n1 [IN11218-026-P1, 2-(3-(1-aminocyclopropyl)-1H-pyrazol-1-yl)-N-(4,4-difluorocyclohexyl)-6-methylpyrimidin-4-amine hydrogen chloride] | + (+ means >1 uM)
23 | Cc1csc(-c2nc(NC3CCC(F)(F)CC3)cc(-c3ccccc3)n2)n1 [IN11218-030-P1] | ++ (++ means 200 nM-1000 nM)
24 | Cc1csc(-c2nc(NC3CCC(F)(F)CC3)cc(C(C)(C)C)n2)n1 [IN11220-039-P1, 6-(tert-butyl)-N-(4,4-difluorocyclohexyl)-2-(4-methylthiazol-2-yl)pyrimidin-4-amine] | ++ (++ means 200 nM-1000 nM)
25 | Cc1ccnn1-c1nc(NC2CCC(F)(F)CC2)cc(N2CCOCC2)n1 [IN11237-056-P1] | + (+ means >1 uM)
26 | CCOC(=O)c1cnc(-c2nc(C)cs2)nc1NC1CCC(F)(F)CC1 [IN11238-035-P1, ethyl 4-((4,4-difluorocyclohexyl)amino)-2-(4-methylthiazol-2-yl)pyrimidine-5-carboxylate] | + (+ means >1 uM)
27 | Cc1csc(-c2ncc(CO)c(NC3CCC(F)(F)CC3)n2)n1 [IN11238-040-P1, (4-((4,4-difluorocyclohexyl)amino)-2-(4-methylthiazol-2-yl)pyrimidin-5-yl) methanol] | + (+ means >1 uM)
28 | COCc1cnc(-c2nc(C)cs2)nc1NC1CCC(F)(F)CC1 [IN11238-046-P1] | + (+ means >1 uM)

Continued, values first:

Row | SC100 (μM) | Compound
29 | ++ (++ means 200 nM-1000 nM) | NC(=O)OCc1cc(NC2CCC(F)(F)CC2)nc(-n2ccc(C3CC3)n2)n1 [IN11239-001-P1, (2-(3-cyclopropyl-1H-pyrazol-1-yl)-6-((4,4-difluorocyclohexyl)amino)pyrimidin-4-yl)methyl carbamate]
30 | + (+ means >1 uM) | Cc1csc(-c2nc(C)cc(NC3CCC(F)(F)CC3)n2)c1 [IN11239-029-P1, N-(4,4-difluorocyclohexyl)-6-methyl-2-(4-methylthiophen-2-yl)pyrimidin-4-amine]
31 | + (+ means >1 uM) | CC(=O)c1ccn(-c2nc(NC3CCC(F)(F)CC3)cc(N3CCOCC3)n2)n1 [IN11243-031-P1]
32 | +++ (+++ means <200 nM) | CC(F)c1ccn(-c2nc(NC3CCC(F)(F)CC3)cc(N3CCOCC3)n2)n1 (centres unmarked) [IN11243-041-P1]
33 | ++ (++ means 200 nM-1000 nM) | Cc1cc(NC2CCC(F)(F)CC2)nc(-n2ccc(C(C)F)n2)n1 (centres unmarked) [IN11243-042-P1, N-(4,4-difluorocyclohexyl)-2-(3-(1-fluoroethyl)-1H-pyrazol-1-yl)-6-methylpyrimidin-4-amine]
34 | ++ (++ means 200 nM-1000 nM) | CC(F)(F)c1ccn(-c2nc(NC3CCC(F)(F)CC3)cc(N3CCOCC3)n2)n1 [IN11243-050-P2]
35 | + (+ means >1 uM) | Cc1cc(NC2CCC(F)(F)CC2)nc(-n2ccc(C3=CCCC3)n2)n1 [IN11250-007-P1, 2-(3-(cyclopent-1-en-1-yl)-1H-pyrazol-1-yl)-N-(4,4-difluorocyclohexyl)-6-methylpyrimidin-4-amine]
36 | + (+ means >1 uM) | Cc1cc(NC2CCC(F)(F)CC2)nc(-n2ccc(C3CCCC3)n2)n1 [IN11250-017-P1, 2-(3-cyclopentyl-1H-pyrazol-1-yl)-N-(4,4-difluorocyclohexyl)-6-methylpyrimidin-4-amine]
37 | + (+ means >1 uM) | C=Cc1ccn(-c2nc(C)cc(NC3CCC(F)(F)CC3)n2)n1 [IN11250-031-P1]
38 | ++ (++ means 200 nM-1000 nM) | Cc1ccn(-c2nc(NCCO)cc(NC3CCC(F)(F)CC3)n2)n1 [IN11250-032-P1]
39 | + (+ means >1 uM) | Cc1cc(NC2CCC(F)(F)CC2)nc(-n2ccc(C3(O)CC3)n2)n1 [IN11251-011-P1, 1-(1-(4-((4,4-difluorocyclohexyl)amino)-6-methylpyrimidin-2-yl)-1H-pyrazol-3-yl)cyclopropan-1-ol]
40 | + (+ means >1 uM) | CCC(O)c1ccn(-c2nc(C)cc(NC3CCC(F)(F)CC3)n2)n1 (centres unmarked) [IN11251-011-P2, 1-(1-(4-((4,4-difluorocyclohexyl)amino)-6-methylpyrimidin-2-yl)-1H-pyrazol-3-yl)propan-1-ol]
41 | + (+ means >1 uM) | Cc1cc(NC2CCC(F)(F)CC2)nc(-n2ccc(C(=O)OC(C)C)n2)n1 [IN11251-020-P1, isopropyl 1-(4-((4,4-difluorocyclohexyl)amino)-6-methylpyrimidin-2-yl)-1H-pyrazole-3-carboxylate]
42 | ++ (++ means 200 nM-1000 nM) | COC(=O)N1CCC(O)(c2cc(NC3CCC(F)(F)CC3)nc(-n3ccc(C)n3)c2)C1 (centres unmarked) [IN11251-035-P1, methyl 3-(2-((4,4-difluorocyclohexyl)amino)-6-(3-methyl-1H-pyrazol-1-yl)pyridin-4-yl)-3-hydroxypyrrolidine-1-carboxylate]
43 | ++ (++ means 200 nM-1000 nM) | COC(=O)N(C)Cc1cc(NC2CCC(F)(F)CC2)nc(-c2nc(C)cs2)c1 [IN11251-043-P1]
44 | + (+ means >1 uM) | Cc1cc(NC2CCC(F)(F)CC2)nc(CO)n1 [IN11273-001-P1, (4-((4,4-difluorocyclohexyl)amino)-6-methylpyrimidin-2-yl) methanol]
